A word on the inhibition: it is the relative decrease from the control value, in per cent.

This note sets out measurements from US8829014B2, “Thiazole and thiophene analogues, and their use in treating autoimmune diseases and cancers” (Board of Supervisors of Louisiana State University and …, priority 2006, dated 2014).

The test system of one assay is NF-κB. The experiment in a line: NF-κB inhibitor screen: basal NF-κB-dependent luciferase expression in HEK/NF-κB cell line. Format: cell-based. The following applies: 1 uM, determined as described in Example 398; for inhibition at 1 µM: read-out: NFkB inhibition @ 1 uM. The source says:
Development of NF-κB and AP-1 Screens: Two HEK293 cell lines were purchased from Panomics. One cell line was stably transfected with a plasmid in which luciferase expression is regulated by six copies of the NF-κB transcriptional element (5′-[…]-3′); and the other cell line was stably transfected with a plasmid in which luciferase expression is regulated by three copies of the AP-1 transcriptional element (TGACTAA). To test the biological activity of the promoters, the HEK/NF-κB cell line was stimulated with TNF-α (20 ng/ml) for 24 hours, and the HEK/AP-1 cell line was stimulated with PMA (10 ng/ml) for 24 hours. […] In addition, a pyrimidine carboxyimide that had previously been shown (ref. 58) to be an inhibitor of transcription mediated by NF-κB and AP-1 reduced luciferase activity by approximately 40% in each of the NF-κB and AP-1 cell lines.
The above two assays analyzed the effects of the compounds on post-transcriptional gene regulation, which is known to play a key role in cancer and inflammation. By contrast, the NF-κB assay and the following assay (AP-1) test whether the compounds act at the transcriptional level. Thirty-nine representative compounds were screened in an HEK/NF-κB cell line. HEK cells were stably transfected with a plasmid expressing luciferase under the control of the NF-κB promoter. These transfected cells were plated on a 96-well plate. As above, initial screening was carried out at 1.0 μM by adding compound in DMSO (0.3%) twenty-four hours after plating. Each compound was added to each of triplicate wells. DMSO (0.3%) was added to one set of wells as a control. Luciferase activity was determined using Promega's Brite-Glo kit, and the mean for each sample was normalized to that for DMSO.
The fourteen representative compounds identified in the eIF4E screen as interesting (Numbered 2, 3, 4, 6, 8, 11, 15, 20, 21, 24, 25, 32, 33, and 35) were then tested for luciferase activity in a six-point dose response (10 nM, 33 nM, 100 nM, 330 nM, 1000 nM, and 3300 nM). Screening was carried out as described above by monitoring the effects of the compounds on basal NF-κB-dependent luciferase expression. Each dose was used out in triplicate, and repeated between two and four times. Results were normalized by the average expression level at the lowest concentration level, as described above.

The subject of another assay is AP-1. Kind of assay: AP-1 inhibitor screen: basal AP-1-dependent luciferase expression in HEK/AP-1 cell line. Format: cell-based. The following applies: for AP-1 inhibition @ 1 uM / inhibition at 1 µM: determined as described in Example 398; for inhibition at 1 µM: AP1. The source says: Development of NF-κB and AP-1 Screens: Two HEK293 cell lines were purchased from Panomics. One cell line was stably transfected with a plasmid in which luciferase expression is regulated by six copies of the NF-κB transcriptional element (5′-[…]-3′); and the other cell line was stably transfected with a plasmid in which luciferase expression is regulated by three copies of the AP-1 transcriptional element (TGACTAA). To test the biological activity of the promoters, the HEK/NF-κB cell line was stimulated with TNF-α (20 ng/ml) for 24 hours, and the HEK/AP-1 cell line was stimulated with PMA (10 ng/ml) for 24 hours.
HEK cells were stably transfected with a plasmid expressing luciferase under the control of the AP-1 promoter. The transfected cells were plated on a 96-well plate for 24 hr. Then 1.0 μM of each compound in DMSO (0.3%) was added to triplicate wells and incubated for 48 hr. DMSO (0.3%) was added to one set of triplicate wells as a control. Luciferase activity was determined using Promega's Brite-Glo kit, and the mean for each sample was normalized to that for DMSO.
Screening was carried out as described above, monitoring the compounds' effects on basal AP-1-dependent luciferase expression. Each dose-response experiment was carried out in triplicate and repeated between two and four times.

A further assay has as its system carageenan-induced edema. The experiment in a line: Carrageenan-induced rat paw edema test (anti-inflammatory activity). Format: in vivo, Sprague-Dawley rats. On the set-up: % Protection: concentration or dose not given beside the values. Conditions: carrageenan-induced rat paw edema, defined in Example 397; for inhibition in vivo at 50 mg/kg: Rattus norvegicus, po, 3 h, read-out: % Protection. The method, boiled down:
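Edema was raised by sub-plantar injection of 1% carrageenan into the right hind paw, 1 h after dosing 18 h-fasted male/female Sprague-Dawley rats (150-250 g) with 50 mg/kg p.o. in 0.1% CMC. Swelling was measured by displacement 3 h later and expressed as % protection against saline control.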
A general note: The carrageenan paw model is a standard test of acute inflammation.

For “2-[2-(1-Furan-2-yl-vinylamino)-4-phenyl-thiazol-5-yl]-3-(4-Chloro-phenyl)-3H-quinazolin-4-one [Example 255]”, the “NFkB inhibition @ 1 uM” value with NF-κB is 0. The “AP-1 inhibition @ 1 uM” value with AP-1 is 7.
Consider “2-[2-(1-Furan-2-yl-vinylamino)-4-phenyl-thiazol-5-yl]-3-(4-acetyl-phenyl)-3H-quinazolin-4-one [Example 270]”, for which, in the assay on carageenan-induced edema, the “% Protection” value is recorded as 20%. Moreover, the “NFkB inhibition @ 1 uM” value in the assay with NF-κB was found to be 11. In addition, in the assay on AP-1, the “AP-1 inhibition @ 1 uM” value is reported as 18.
In the same order, the values of “2-[2-(1-Furan-2-yl-vinylamino)-4-phenyl-thiazol-5-yl]-3-(4-methoxyphenyl)-3H-quinazolin-4-one [Example 224]” are 79%, −24 and 2.
The matching figures for “2-[2-(1-Furan-2-yl-vinylamino)-4-phenyl-thiazol-5-yl]-3-phenyl-3H-quinazolin-4-one [Example 164]”: 66%, 2 and 53.
Take `CCOC(=O)Nc1nc(C)c(-c2nc3ccccc3c(=O)n2-c2ccccc2)s1` [Example 154, (4-Methyl-5-(4-oxo-3-phenyl-3,4-dihydro-quinazolin-2-yl)-thiazol-2-yl)-carbamic acid ethyl ester]: the inhibition in vivo at 50 mg/kg in the assay on carageenan-induced edema was 12%. Further, the inhibition at 1 µM in the assay on NF-κB was 19%; in the assay on AP-1 it was -13%.
The matching figures for `COC(=O)Nc1nc(C)c(-c2nc3ccccc3c(=O)n2-c2ccccc2)s1` [Example 155, (4-Methyl-5-(4-oxo-3-phenyl-3,4-dihydro-quinazolin-2-yl)-thiazol-2-yl)-carbamic acid methyl ester]: 0%, 24% and -1%.
In the same order, the values of `Cc1nc(Nc2ccccc2)sc1-c1nc2ccccc2c(=O)n1-c1ccccc1` [Example 157, 2-(4-Methyl-2-phenylamino-thiazol-5-yl)-3-phenyl-3H-quinazolin-4-one] are 12%, 25% and 16%.
For the compound `Cc1nc(Nc2ccc(Cl)cc2)sc1-c1nc2ccccc2c(=O)n1-c1ccccc1` [Example 158, 2-[2-(4-Chlorophenylamino)-4-methyl-thiazol-5-yl]-3-phenyl-3H-quinazolin-4-one], the inhibition in vivo at 50 mg/kg in the assay with carageenan-induced edema is 4%. For the same compound, the inhibition at 1 µM in the assay with NF-κB was -9%; in the assay with AP-1, -20%.
With `O=c1c2ccccc2nc(-c2sc(Nc3ccccc3)nc2-c2ccccc2)n1-c1ccccc1` [Example 161, 3-Phenyl-2-(4-phenyl-2-phenylamino-thiazol-5-yl)-3H-quinazolin-4-one], the inhibition in vivo at 50 mg/kg in the assay on carageenan-induced edema was 60%. Besides, the results for the inhibition at 1 µM in the assay on NF-κB and in the assay on AP-1 were 80% and 7%, respectively.
On to `O=C(Nc1nc(-c2ccccc2)c(-c2nc3ccccc3c(=O)n2-c2ccccc2)s1)c1ccccc1` [Example 162], for which the “% Protection” value in the assay on carageenan-induced edema was 87%. For the same compound, the “NFkB inhibition @ 1 uM” value in the assay with NF-κB was determined as 58. In the assay with AP-1, the “AP-1 inhibition @ 1 uM” value was found to be 17.
As for `Cc1ccc(C(=O)Nc2nc(-c3ccccc3)c(-c3nc4ccccc4c(=O)n3-c3ccccc3)s2)cc1` [Example 163, 4-Methyl-N-[5-(4-oxo-3-phenyl-3,4-dihydroquinazolin-2-yl)-4-phenyl-thiazol-2-yl]-benzamide], in the assay on carageenan-induced edema, the inhibition in vivo at 50 mg/kg was 77%. In addition, the values for the inhibition at 1 µM with NF-κB and in the assay with AP-1 were 88% and 68%, respectively.
Consider `O=c1c2ccccc2nc(-c2sc(Nc3ccc(Cl)cc3)nc2-c2ccccc2)n1-c1ccccc1` [Example 165, 2-[2-(4-Chloro-phenylamino)-4-phenyl-thiazol-5-yl]-3-phenyl-3H-quinazolin-4-one], for which the inhibition in vivo at 50 mg/kg in the assay on carageenan-induced edema was determined as 87%. Besides, the inhibition at 1 µM is -47% in the assay on NF-κB and 27% in the assay with AP-1. The “basal AP-1-dependent luciferase, six-point dose response” value in the assay on AP-1 (10 nM-3300 nM (FIG. 14)) is “substantial activity at submicromolar concentrations”.
Turning to `CCOC(=O)Nc1nc(C)c(-c2nc3ccccc3c(=O)n2-c2ccccc2C)s1` [Example 166, [4-Methyl-5-(4-oxo-3-o-tolyl-3,4-dihidro-quinazolin-2-yl)-thiazol-2-yl]-carbamic acid ethyl ester], the “NFkB inhibition @ 1 uM” value in the assay with NF-κB is reported as 21. Besides, the “AP-1 inhibition @ 1 uM” value with AP-1 turned out to be 14.
On to `CNc1nc(C)c(-c2nc3ccccc3c(=O)n2-c2ccccc2C)s1` [Example 168], for which the “% Protection” value in the assay on carageenan-induced edema was 35%. Also, in the assay on NF-κB, the “NFkB inhibition @ 1 uM” value was 16. Besides, in the assay with AP-1, the “AP-1 inhibition @ 1 uM” value is on record as 67.
Regarding `Cc1ccccc1-n1c(-c2sc(Nc3ccccc3)nc2C)nc2ccccc2c1=O` [Example 169, 2-(4-Methyl-2-phenylamino-thiazol-5-yl)-3-o-tolyl-3H-quinazolin-4-one], in the assay on carageenan-induced edema, the inhibition in vivo at 50 mg/kg is 42%. Also, the inhibition at 1 µM in the assay with NF-κB stood at 21%; with AP-1 it was 60%.
`CCOC(=O)Nc1nc(-c2ccccc2)c(-c2nc3ccccc3c(=O)n2-c2ccccc2C)s1` [Example 171, [5-(4-Oxo-3-o-tolyl-3,4-dihydro-quinazolin-2-yl)-4-phenyl-thiazol-2-yl]-carbamic acid ethyl ester]: the inhibition in vivo at 50 mg/kg in the assay with carageenan-induced edema was determined as 52%. Besides, the inhibition at 1 µM in the assay on NF-κB came to 23%; with AP-1, 52%.
As for `Cc1cccc(-n2c(-c3sc(Nc4ccc(Cl)cc4)nc3-c3ccccc3)nc3ccccc3c2=O)c1` [Example 189, 2-[2-(4-Chloro-phenylamino)-4-phenyl-thiazol-5-yl]-3-m-tolyl-3H-quinazolin-4-one], in the assay on carageenan-induced edema, the inhibition in vivo at 50 mg/kg is 38%. The inhibition at 1 µM in the assay with NF-κB was -4%; with AP-1, 83%.
On to `COc1ccc(-n2c(-c3sc(NC(=O)c4ccc(C)cc4)nc3-c3ccccc3)nc3ccccc3c2=O)cc1` [Example 223, 4-Methyl-N-[5-(4-oxo-3-(4-methoxyphenyl)-3,4-dihydroquinazolin-2-yl)-4-phenyl-thiazol-2-yl]-benzamide], for which the results for the inhibition at 1 µM in the assay on NF-κB and with AP-1 were -24% and -28%, respectively.
On to `Cc1ccc(Nc2nc(-c3ccccc3)c(-c3nc4ccccc4c(=O)n3-c3ccc(Cl)cc3)s2)cc1` [Example 257, 2-[2-(4-Methyl-phenylamino)-4-phenyl-thiazol-5-yl]-3-(4-Chloro-phenyl)-3H-quinazolin-4-one], for which the inhibition at 1 µM in the assay with NF-κB was -10%; with AP-1 it was -51%.
As to `COC(=O)Nc1nc(-c2ccccc2)c(-c2nc3ccccc3c(=O)n2-c2ccc(C(C)=O)cc2)s1` [Example 265, [5-(4-Oxo-3-(4-acetyl-phenyl)-3,4-dihidro-quinazolin-2-yl)-4-phenyl-thiazol-2-yl]-carbamic acid methyl ester], the “NFkB inhibition @ 1 uM” value in the assay with NF-κB is 0. In the assay with AP-1, the “AP-1 inhibition @ 1 uM” value is given as 16.
For the compound “{5-[3-(3-Methoxy-phenyl)-4-oxo-3,4-dihydro-quinazolin-yl]-thiazol-2-yl}-carbamic acid ethyl ester [Example 209]”, the “NFkB inhibition @ 1 uM” value in the assay with NF-κB is listed as 29. The “AP-1 inhibition @ 1 uM” value in the assay on AP-1 worked out at 5.
